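96-well plates; 48 h exposure; 5 concentrations. Endpoints by linear interpolation between flanking doses. Not reached: highest tested concentration assigned. At the GI50, growth is halved. TGI: concentration producing complete growth inhibition.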
How the values were obtained:
Assay in all cases: DTP human tumour cell line panel, 48 h
[1] = test system: SNB-19 CNS
[2] = test system: HS 578T breast
[3] = test system: M14 melanoma
[4] = test system: CAKI-1 renal
[5] = test system: RXF 393 renal
[6] = test system: HL-60(TB) leukemia
[7] = test system: SR leukemia
[8] = test system: A549 NSCLC
[9] = test system: OVCAR-8 ovarian
[10] = test system: RPMI-8226 leukemia

Structure (SMILES)	GI50 [1] [µM]	TGI [1] [µM]	GI50 [2] [µM]	TGI [2] [µM]	GI50 [3] [µM]	TGI [3] [µM]	GI50 [4] [µM]	TGI [4] [µM]	GI50 [5] [µM]	TGI [5] [µM]	GI50 [6] [µM]	TGI [6] [µM]	GI50 [7] [µM]	TGI [7] [µM]	GI50 [8] [µM]	TGI [8] [µM]	GI50 [9] [µM]	TGI [9] [µM]	GI50 [10] [µM]	TGI [10] [µM]
O=C(/C=C/c1ccccc1)Nc1ncc(Cc2ccccc2Cl)s1	0.404	> 100	0.302	> 24.7	0.236	> 100	0.329	> 100	0.223	0.73	0.285	0.872	0.153	> 100	0.469	> 100	0.509	> 100	0.335	
CC(=O)OC1OC([C@H]2c3cccc(O)c3C(=O)c3c(O)cc(C)cc32)C(O)C(O)C1O (stereo partly specified)	0.0342			0.728	< 0.0214	3.85	0.0773	0.544	< 0.0267	0.346	0.0157	0.0472	0.0308	0.119	0.0479	15.1	0.0294	0.0873	0.0779	0.2
CCOc1cccc(/C=N/NC(=O)c2cccc(Nc3ccnc(C(F)(F)F)c3)c2)c1O	1.63	> 100	5.53	72.7	1.22	7.88	0.772	32	1.66	44.6	0.262	1.01	0.212	8.67	3.73	> 100	1.12	37	2.16	> 100
O=C(NC(=O)c1c(F)cccc1F)Nc1cccc(Oc2ncc(Cl)cn2)c1		> 86.3		> 92.1		> 100		> 100		79.5		> 100		> 73.8		> 100		> 100		> 100
COc1ccc2c(c1)NC1=C(C(=O)OC1)C2c1cc(OC)c(OC)c(OC)c1 (stereo unspecified)	< 0.01	> 100	< 0.01	> 100	< 0.01	> 100	< 0.0127	> 100	< 0.01	61.8	< 0.01	< 0.01	< 0.01	> 100	< 0.01	> 100	< 0.01	> 100	< 0.01	> 100
C=C(C)[C@@H]1CC[C@]2(COCCCN)CC[C@]3(C)[C@H](CC[C@@H]4[C@@](C)(CCCNCCCN)[C@H](C(=C)C)CC[C@]43C)[C@@H]12	1.84	3.56	2.16	5.54	1.9	3.62	1.75	3.13	1.59	2.98	1.64	3.47	1.32	3.59	1.89	3.63	1.91	3.61	2.2	5.08
Cc1cn(C2CC(OC(=O)c3ccc(Cl)cc3)C(COC(=O)c3ccc(Cl)cc3)O2)c(=O)[nH]c1=O (stereo unspecified)		> 100		> 100		> 100		> 100				> 100		> 100		> 100		> 100		> 100

Reference: PubChem BioAssay (NCI)
